# Legend:
# [1] = tested on: CD62P (P-selectin) surface expression on platelets; test: Whole blood flow cytometry of platelet CD62P surface expression (α-granule release); format: cell-based; settings: for median PE fluorescence (CD62P) / frequency of CD62P expression (CD62P+ platelets): Example 1; for CD62P expression: Example 2, iloprost 0.5 μM where added, mean of 3 subjects; for MFI Over Time (CD62P, all platelet events): Example 3, 10 subjects
# Excerpt: (§1) Platelet activation can result in a robust and rapid release of α-granules, dense granules, and lysosomes, the contents of which serve to promote a variety of autocrine and paracrine signal transduction events. CD62P (P-selectin) is an adhesion molecule that is transiently expressed on the platelet plasma membrane following α-granule release and can mediate platelet-leukocyte aggregates via ligation with leukocyte expressed P-selectin glycoprotein ligand 1 (PSGL-1/CD162). Dense granule and lysosome release can be measured, although not distinguished, with CD63 surface expression.
# (§2) The effect of EDTA on platelet activation, as judged by CD62P and CD63 surface expression, was evaluated in the presence or absence of the platelet stabilization agent (iloprost). Whole blood was collected into tubes containing EDTA or EDTA with iloprost at 0.5, 5 and 50 μM final concentration. Antibody cocktails containing previously determined amounts of αCD61 PerCP, αCD62P PE, αCD63 Alexa Fluor® 647, and/or appropriate isotype controls were added to a conical bottom micro titer plate. A modified HEPES-Tyrode's buffer was used to equilibrate the final volume to 100 μL for each staining reaction. Platelet surface staining was performed by adding 5 μL of whole blood to the appropriate staining mix and incubating at RT under dark conditions for 15 minutes. Afterwards, the entire reaction was transferred to 5 mL round bottom polystyrene snap cap tubes containing 1 mL of HEPES-Tyrode's buffer for a final dilution of each sample. Samples were briefly vortexed and data was acquired using a BD FACScalibur instrument. FSC and SSC settings were established on the log scale in order to discern platelet size and morphology from RBC and WBC populations. In order to further discriminate platelet-specific events, a PerCP alone control was used to establish a CD61^+ gate. Since CD63 is not a platelet specific marker it was necessary to further gate on the single platelet morphology population to avoid a CD63 signature from the platelet-bound leukocytes. The PerCP alone control was also used to set fluorescence detector voltages for CD62P^−/CD63^− populations. Once voltage and compensation settings were finalized, 10,000 CD61^+/single platelet events were acquired for each test sample.
# The effect of iloprost on platelet activation was studied in the presence of strong platelet-activating agents, ADP and thrombin-receptor activating peptide (TRAP). Platelet stimulations were performed by adding 300 μL blood to micro-centrifuge tubes containing 10 μL of saline (0.85%), ADP, or TRAP-6 and incubating for approximately 2 min at RT. Final concentrations of ADP and TRAP-6 were 6.5 μM and 32 μM, respectively. Afterwards, whole blood flow cytometry was performed as described above. Blood collection and flow cytometry was performed as described in example 1.
# The effect of iloprost on platelet degranulation was measured in EDTA and EDTA/protease inhibitor background. Whole blood was collected into tubes containing EDTA, EDTA with iloprost, a protease inhibitor cocktail (“PIC”, which included one protease inhibitor from each class of inhibitor described in Table II in U.S. Pat. No. 7,309,468), and the cocktail with iloprost. Whole blood flow cytometry to measure CD62P expression was performed as described in example 1.
# [2] = tested on: CD63 surface expression on platelets; test: Whole blood flow cytometry of platelet CD63 surface expression (dense granule/lysosome release); format: cell-based; settings: Example 2; for CD63 surface expression: EDTA without iloprost
# Excerpt: as §1
# as §2, with “Since CD63 is not a platelet specific marker it was necessary to further gate on the single platelet morphology population to avoid a CD63 signature from the platelet-bound leukocytes.” left out, “Once voltage and compensation settings were finalized, 10,000 CD61^+/single platelet events were acquired for each test sample.” left out
# [3] = target: acetylcholinesterase (AChE) (Homo sapiens, UniProt P22303); settings: read-out: Ki for AChE; cited from earlier work
# acetylcholinesterase (AChE), sequence (P22303 32-614, species assumed): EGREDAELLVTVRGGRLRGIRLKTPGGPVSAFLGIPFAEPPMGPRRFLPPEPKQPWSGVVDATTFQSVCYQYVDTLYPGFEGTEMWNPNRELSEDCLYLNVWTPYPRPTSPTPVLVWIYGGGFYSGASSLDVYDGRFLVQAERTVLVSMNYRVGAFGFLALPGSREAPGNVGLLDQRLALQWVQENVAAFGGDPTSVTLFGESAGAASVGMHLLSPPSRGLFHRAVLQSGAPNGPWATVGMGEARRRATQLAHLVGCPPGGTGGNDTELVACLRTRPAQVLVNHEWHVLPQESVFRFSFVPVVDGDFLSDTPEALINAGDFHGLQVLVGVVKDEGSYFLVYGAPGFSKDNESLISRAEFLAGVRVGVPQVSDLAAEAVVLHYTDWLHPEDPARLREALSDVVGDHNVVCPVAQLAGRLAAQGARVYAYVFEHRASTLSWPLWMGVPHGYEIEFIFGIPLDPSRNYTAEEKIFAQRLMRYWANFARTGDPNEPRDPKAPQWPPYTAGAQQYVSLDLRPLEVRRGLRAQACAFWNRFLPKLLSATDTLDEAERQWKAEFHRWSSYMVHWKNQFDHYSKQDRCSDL
# [4] = tested on: platelet-leukocyte aggregates; test: Leukocyte-platelet aggregates by flow cytometry (αCD61/αCD45); format: cell-based; settings: t=0, 4, 24 and 144 hr of sample dwell; versus EDTA alone; 6 subjects
# Excerpt: Blood was collected as described in example 1. Antibody cocktails containing previously determined amounts of αCD61 (platelet marker), αCD45 (leukocyte marker) and/or appropriate isotype controls were used to detect the platelet-leukocyte aggregates at t=0, 4, 24 and 144 hr of sample dwell with the use of flow cytometry as described in example 1. […] Data representative of 6 subjects.
# [5] = tested on: VEGF; test: Plasma biomarker release, ELISA; format: cell-based; settings: 0, 2, 8 and 24 hr sample dwell; relative to EDTA alone
# Method: (§3) Blood was collected as described in example 1. Plasma was prepared at indicated timepoints (0, 2, 8 and 24 hr sample dwell) by centrifuging the tubes at 3000 rcf for 10 min. and was used to measure levels of PDGFa/a, TGFβ1, VEGF, IL-8 (CXCL8), and RANTES (CCL5) using commercially available ELISA kits, per manufacturer's instructions.
# [6] = tested on: RANTES (CCL5); test: Plasma biomarker release, ELISA; format: cell-based; settings: 0, 2, 8 and 24 hr sample dwell; relative to EDTA alone
# Method: as §3
# [7] = tested on: PDGFa/a; test: Plasma biomarker release, ELISA; format: cell-based; settings: 0, 2, 8 and 24 hr sample dwell; relative to EDTA alone
# Method: as §3
# [8] = tested on: IL-8 (CXCL8); test: Plasma biomarker release, ELISA; format: cell-based; settings: EDTA with iloprost versus EDTA alone
# Method: as §3
# [9] = tested on: TGFβ1; test: Plasma biomarker release, ELISA; format: cell-based; settings: 0, 2, 8 and 24 hr sample dwell; relative to EDTA alone
# Method: as §3
# [10] = tested on: platelets (platelet clumping); test: Complete blood count and hematology parameters, Sysmex XE-2100; format: cell-based; settings: compared to EDTA alone
# [11] = whole blood in EDTA, iloprost 0.5 μM
# [12] = whole blood in EDTA, iloprost 5 μM
# [13] = whole blood in EDTA, iloprost 50 μM
smiles,measurement,setting,value
"O=C(O)CN(CCN(CC(=O)O)CC(=O)O)CC(=O)O [EDTA, Ethylenediamine tetraacetic acid]",median PE fluorescence (CD62P),[1]; whole blood in EDTA alone,44.7
same,frequency of CD62P expression (CD62P+ platelets),"[1]; whole blood in EDTA alone, no iloprost",44.7%
same,CD62P expression,[1]; ADP 6.5 μM activated,85.1%
same,CD62P expression,[1]; TRAP-6 32 μM activated,99.4%
same,CD62P expression,[1]; resting samples (saline),44.6%
same,"MFI Over Time (CD62P, all platelet events)",[1]; 0 hrs sample dwell,20.21
same,"MFI Over Time (CD62P, all platelet events)",[1]; 2 hrs sample dwell,42.66
same,"MFI Over Time (CD62P, all platelet events)",[1]; 8 hrs sample dwell,33.14
same,"MFI Over Time (CD62P, all platelet events)",[1]; 24 hrs sample dwell,63.02
same,"MFI (CD62P, all platelet events)","[1]; Example 10, 5 subjects",171.56
same,CD63 surface expression,[2]; ADP 6.5 μM,7.67%
same,CD63 expression,"[2]; TRAP-6 32 μM stimulated, iloprost 0.5, 5, 50 μM where added",69.3%
same,CD63 surface expression,[2]; unstimulated,2.13%
"CCC1=CC2Cc3nc4cc(Cl)ccc4c(N)c3C(C1)C2 [Huprine X, (1S)-7-chloro-15-ethyl-10-azatetracyclo[11.3.1.0̂{2,11}.0̂{4,9}]heptadeca-2(11),3,5,7,9,14-hexane-3-amine]",Ki,[3],0.026 nM
CC#CCC(C)[C@H](O)/C=C/[C@@H]1[C@H]2C/C(=C/CCCC(=O)O)C[C@H]2C[C@H]1O (some centres unmarked) [iloprost],frequency of CD62P expression (CD62P+ platelets),[1]; [11],15.0%
same,median PE fluorescence (CD62P),[1]; [11],7.31
same,frequency of CD62P expression (CD62P+ platelets),[1]; [12],14.1%
same,median PE fluorescence (CD62P),[1]; [12],7.12
same,frequency of CD62P expression (CD62P+ platelets),[1]; [13],13.9%
same,median PE fluorescence (CD62P),[1]; [13],7.06
same,CD62P expression,[1]; ADP 6.5 μM activated,17.3%
same,CD62P expression,[1]; TRAP-6 32 μM activated,33.4%
same,CD62P expression,[1]; resting samples (saline),15.0%
same,percentage of CD62+ events,"[1]; Example 10, both EDTA and PIC backgrounds, 5 subjects",reduced
same,percentage of leukocyte-bound platelets,[4],reduced
same,expression of VEGF in plasma,[5],reduced
same,expression of RANTES in plasma,[6],reduced
same,expression of PDGFa/a in plasma,[7],reduced
same,expression of IL-8 in plasma,[8],similar
same,expression of TGFβ1 in plasma,[9],reduced
same,mean platelet volume (MPV),"[10]; p<0.001, Paired Test",lower
same,decrease in platelet clumps,[10]; study of 300 normal healthy subjects,40%
